Experiments:
Type in all cases: in vivo, mouse
old C57b1/6 mice = test: Transdiaphragmatic pressure (Pdimax) in aged mice; settings: aged C57BL/6 mice, anesthetized, eupnoea, 25 mg/kg p.o. each substance, 90 days
Method: The experiments were performed in old C57b1/6 mice (28-30 weeks). Table 1 discloses the groups of mice used for the experimentation. C57BL/6 mice were bred and naturally aged in a pathogen-free colony. Mice were group-housed six per cage for the treatment regimen and maintained on a 12-hr light-dark schedule with ad libitum access to food and water. All experiments were designed according to the principles of animal use for gerontological research (Miller, R. A., & Nadon, N. L. (2000). Principles of animal use for gerontological research. Journals of Gerontology. Series A, Biological Sciences and Medical Sciences, 55, B117-B123) [table] […] The respiratory muscle function in the study animals was assessed by estimating the Tidal Volume, Minute ventilation, Transdiaphragmatic pressure ([…]) and Respiratory rate. […] Anesthetized mice were monitored continually for temperature, oxygen saturation, and heart rate. Palpebral reflex and pain response were monitored to ensure depth of anaesthesia. […] Spontaneous ventilation was maintained, the abdomen was bound, and Pdi was recorded using solid-state pressure catheters. […] The pressure data were collected using a PowerLab 8/35 data-acquisition system and analyzed using LabChart ([…]., & Mantilla, C. B. (2013). Novel method for transdiaphragmatic pressure measurements in mice. Respiratory Physiology & Neurobiology, 188, 56-59)

SIRT1 = SIRT1 ELISA in lung tissue homogenate of aged mice; settings: aged C57BL/6 mice, 25 mg/kg p.o. each substance, 90 days
Method: The experiments were performed in old C57b1/6 mice (28-30 weeks). Table 1 discloses the groups of mice used for the experimentation. C57BL/6 mice were bred and naturally aged in a pathogen-free colony. Mice were group-housed six per cage for the treatment regimen and maintained on a 12-hr light-dark schedule with ad libitum access to food and water. All experiments were designed according to the principles of animal use for gerontological research (Miller, R. A., & Nadon, N. L. (2000). Principles of animal use for gerontological research. Journals of Gerontology. Series A, Biological Sciences and Medical Sciences, 55, B117-B123) [table] The above test substances were administered to the mice for a period of 90 days. Rapamycin was used as a positive control. After 90 days of administration experiments were performed to assess the respiratory muscle function, anatomical changes, cellular senescence and immunological changes. A number of cellular mechanisms and alterations constitute the hallmarks of cellular senescence. These include a stable cell cycle arrest chromatin alteration & reorganization; Inhibition of Sirt-1. Inhibition of AMPK and Dysregulation of mTOR. Silencing information regulator 2 related enzyme 1 (sirtuin1, SIRT1) is an NAD+-dependent deacetylase, which is involved in the regulation of cellular senescence and aging. The expression of SIRT1 is diminished with aging in mice. […]

Immunoglobulin A (IgA) = test: IgA ELISA in bronchoalveolar lavage fluid of aged mice; settings: aged C57BL/6 mice, 25 mg/kg p.o. each substance, 90 days
Method: The experiments were performed in old C57b1/6 mice (28-30 weeks). Table 1 discloses the groups of mice used for the experimentation. C57BL/6 mice were bred and naturally aged in a pathogen-free colony. Mice were group-housed six per cage for the treatment regimen and maintained on a 12-hr light-dark schedule with ad libitum access to food and water. All experiments were designed according to the principles of animal use for gerontological research (Miller, R. A., & Nadon, N. L. (2000). Principles of animal use for gerontological research. Journals of Gerontology. Series A, Biological Sciences and Medical Sciences, 55, B117-B123) [table] The above test substances were administered to the mice for a period of 90 days. Rapamycin was used as a positive control. After 90 days of administration experiments were performed to assess the respiratory muscle function, anatomical changes, cellular senescence and immunological changes. Bronchoalveolar lavage (BAL) fluids in healthy older subjects have consistently shown an increased proportion of neutrophils and lower percentage of macrophages compared with younger adults. There is age-associated decline in immunoglobins IgA and IgM. […] Immunoglobulin A (IgA) is the most abundant Ig in mucosac where it plays key roles in host defense against pathogens and in mucosal immunoregulation. […]

SMILES: O=C(/C=C/c1ccc(O)c(O)c1)O[C@H](Cc1ccc(O)c(O)c1)C(=O)O [Rosmarinic acid]
- Transdiaphragmatic pressure (Pdimax) (old C57b1/6 mice): increase
- expression of SIRT1 (SIRT1): increased
- expression of IgA (Immunoglobulin A (IgA)): increased

From patent publication US20250090614A1, “COMPOSITIONS AND METHODS FOR IMPROVING LUNG FUNCTION” (priority 2023, published 2025)
